# Measured values published in PubChem BioAssay AID1421 (Emory University Molecular Libraries Screening Center, 2008).
# The source made the active and inactive calls. No rule for the calls is given here.
# Biological target: Prostaglandin E2 receptor EP2 subtype (Homo sapiens) (UniProt P43116)
# Experiment: compounds shifting PGE2 potency at EP2 – cell-based, human EP2, PGE2 EC50 shift, dose response (AID 1421)
# Settings: EP2-expressing cells, PGE2 EC50 shift by compound
# Sequence of Prostaglandin E2 receptor EP2 subtype (Homo sapiens) (P43116 whole entry, looked up): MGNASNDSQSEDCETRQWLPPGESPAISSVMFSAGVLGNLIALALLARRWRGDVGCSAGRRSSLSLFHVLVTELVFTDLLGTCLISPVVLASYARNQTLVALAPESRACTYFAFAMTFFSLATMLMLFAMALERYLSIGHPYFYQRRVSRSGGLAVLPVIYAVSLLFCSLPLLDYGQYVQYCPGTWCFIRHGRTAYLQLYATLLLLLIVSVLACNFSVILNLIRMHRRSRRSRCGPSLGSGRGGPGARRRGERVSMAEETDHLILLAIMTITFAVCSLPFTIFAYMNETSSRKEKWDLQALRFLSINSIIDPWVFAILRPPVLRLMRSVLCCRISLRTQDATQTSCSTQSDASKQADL
row,Structure (SMILES),outcome
1,CCCSc1ncnc2c1oc1ccccc12,active
2,CC1=CC(C)(C)N(C(=O)c2ccccc2)c2ccccc21,active
3,NC(=NCCC[C@H](N)C(=O)O)N[N+](=O)[O-],active
4,CC(C)OC(=O)c1c(NC(=O)c2cccs2)sc2c1CCCC2,active
5,Clc1ccc(COn2c(-c3ccccc3)nc3ccccc32)cc1,active
6,CC(C)(C)C1CCC(OC(=O)c2ccncc2)CC1 (configuration not stated),active
7,CCOP(=O)(OCC)c1nc(-c2cccc3ccccc23)oc1NCc1ccc(OC)cc1,active
8,CC(C)C1COC(c2cccn2Cc2ccccc2Cl)=N1 (configuration not stated),active
9,CC(C)(C)C1CCC(=NNc2ccc(S(N)(=O)=O)cc2[N+](=O)[O-])CC1 (configuration not stated),active
10,CCCSc1ncnc2sc(C)c(C)c12,active

# Same assay, conditions: EP2-expressing cells, PGE2 EC50 shift by compound; measured here: PGE2 EC50 at 6.7 uM compound
row,Structure (SMILES),PGE2 EC50 with compound
1,CCOC(=O)C1=C(CC)Nc2ccccc2N=C1NC(=O)c1oc2ccccc2c1C,1.19 nM
2,CCOC(=O)c1sc2nc(C)nc(N3CCN(c4ncccn4)CC3)c2c1C,0.62 nM
3,Cc1ccccc1Cn1c(-c2cncs2)nc2ccccc21,2.57 nM
4,Cc1nc(N(C)C)c2sc(=S)n(Cc3ccccc3)c2n1,1.21 nM
5,Cc1cccc(Cn2c(N3CCN(c4ccccc4)CC3)nc3c2c(=O)n(C)c(=O)n3C)c1,0.94 nM
6,Cc1cc2cc(CN(Cc3nnnn3C3CCCCC3)CC3CCCO3)c(=O)[nH]c2cc1C (configuration not stated),0.97 nM
7,COc1ccccc1C1c2[nH]c3ccccc3c2CCN1Cc1cnc(C)s1 (configuration not stated),1.59 nM
8,CCCCNc1nc2c(S(=O)(=O)c3ccccc3)nnn2c2ccccc12,1.17 nM
9,CCCC(=O)O[C@H]1C[C@@H](C)N(C(=O)c2ccccc2)c2ccc(C)cc21,0.88 nM
10,CCCSc1ncnc2c1oc1ccccc12,0.69 nM
11,CCc1ccc2[nH]c(=O)c(C(c3nnnn3CC3CCCO3)N3CCCc4ccccc43)cc2c1 (configuration not stated),0.99 nM
12,CC1=CC(C)(C)N(C(=O)c2ccccc2)c2ccccc21,0.8 nM
13,CCOC(=O)c1c(/N=C/C2C(=O)CCCC2=O)sc2c1CCCC2,1.32 nM
14,C=CCSc1nc(N(CC)CC)c2sccc2n1,0.98 nM
15,Cc1ccc(C(=O)C2=C(O)C(=O)N(CCCn3ccnc3)C2c2ccc(OC(C)C)cc2)o1 (configuration not stated),1.01 nM
16,Cc1cc(C(=O)NCC(c2ccco2)N(C)C)no1 (configuration not stated),2.55 nM
17,CC(C)CCn1c(N2CCN(c3cccc(Cl)c3)CC2)nc2c1c(=O)[nH]c(=O)n2C,0.93 nM
18,NC(=NCCC[C@H](N)C(=O)O)N[N+](=O)[O-],1.93 nM
19,CCOP(=O)(OCC)c1nc(-c2ccccc2)oc1NCc1ccccc1,1.04 nM
20,COc1cnc(N(C)C)nc1Sc1cccc(Cl)c1,1.13 nM
21,COc1ccc(/C=C(\C#N)C(N)=O)cc1OC,1.31 nM
22,CC(C)OC(=O)c1c(NC(=O)c2cccs2)sc2c1CCCC2,1.01 nM
23,CO/N=C/C(=N\Nc1ccccc1)C(=O)c1ccccc1,0.59 nM
24,COc1cc(-c2noc(-c3cccc(Cl)c3)n2)cc(OC)c1OC,1.11 nM

row,Structure (SMILES),PGE2 EC50 with compound
1,CCOc1cccc(CNc2ccc(O)cc2)c1OCc1ccc(Cl)cc1,1.41 nM
2,O=C(O)c1csc(N/N=C/c2ccc(Br)cc2)n1,0.89 nM
3,CCN(CC)C(=O)c1nn(-c2ccccc2)c2c1C1CCC2(C)C1(C)C (configuration not stated),1.24 nM
4,Cc1ccc(S(=O)(=O)c2c(C)nn(-c3ccccc3)c2OC(=O)c2ccco2)cc1,0.71 nM
5,C=CCSc1nc(Oc2ccccc2)c2sccc2n1,2.43 nM
6,O=C(OCC(=O)N1N=C(c2ccc(Cl)cc2)CC1c1ccco1)c1ccco1 (configuration not stated),1.63 nM
7,COc1ccc(C(=O)COC(=O)C(CCSC)NS(=O)(=O)c2ccc(Cl)cc2)cc1 (configuration not stated),2.2 nM
8,CN(N=O)c1ccc(O)c(O)c1,1.26 nM
9,Cc1ccn2c(Nc3ccccc3C)c(-c3ccccn3)nc2c1,0.73 nM
10,Cc1cccc(NCc2nc3ccccc3n2Cc2ccccc2)c1,1.13 nM
11,Cc1nccc2[nH]c(=O)c(C(=O)NC3CCCCC3C)cc12 (configuration not stated),1.44 nM
12,Cc1ccc(O)c(N=Cc2cc(Cc3ccccc3)cc([N+](=O)[O-])c2O)c1,1.07 nM
13,Cc1nc2ccccc2c(-c2ccccc2)c1C(=O)c1ccccc1,2.55 nM
14,COc1ccc(-c2cc(C(F)(F)F)nc(NCc3ccco3)n2)cc1OC,0.53 nM
15,Clc1ccc(-c2nc3ccccn3c2CN2CCCCC2)cc1,1.26 nM
16,CCCOP(=O)(OCCC)c1nc(-c2ccccc2)oc1NCc1ccccc1,1.01 nM
17,CC(Sc1nc2ccccc2n1C)C(=O)NC(c1ccccc1)c1ccccc1 (configuration not stated),1.24 nM
18,CC[C@@H]1C(=O)OC[C@@H]1Cc1cncn1C,1.8 nM
19,CC(=O)N(c1cccc(Br)c1)C1C=CS(=O)(=O)C1 (configuration not stated),0.98 nM
20,CCCCCCC/C=C\CCCCCCCCC(=O)O,1.56 nM
21,Cc1cccc(OCC(=O)Nc2ccccc2-c2ccccc2)c1,0.63 nM
22,COc1cc(CN2CCC(C(=O)N3CCN(c4ccccc4F)CC3)CC2)cc(OC)c1OC,0.75 nM
23,CCc1cc2cc(C)cc(C)c2nc1SCC(=O)N1CCCC1,3.07 nM
